What all share (format): cell-based, human
The test system of one test is primary melanocytes. The experiment in a line: Yield of primary melanocytes from dissociated epidermis cultured in TIVA ± Y-27632. As to the method:
Foreskin tissues were trimmed to remove the fat layer and then incubated with Dispase solution (2.5 mg/ml in PBS, overnight at 4° C.). On the second day, the epidermis was peeled from the dermis with fine forceps and chopped into small pieces, incubated with 0.05% trypsin for 15-30 min, neutralized with 10% FBS in DMEM, filtered ([…], Millipore), centrifuged, and rinsed with PBS. In the conventional method of melanocyte isolation, the epidermal cells were plated into culture vessels with melanocyte culture medium TIVA (Ham's F12, Mediatech, Inc., Herndon, Va., USA; 10% fetal bovine serum; 1× penicillin/streptomycin/glutamine, Invitrogen, Carlsbad, Calif., USA; 1×10^−4 M 3-isobutyl-1-methyl xanthine (IBMX), Sigma, St Louis, Mo., USA; 50 ng/ml 12-O-tetradecanoyl phorbol-13-acetate (TPA), Sigma; 2 μM Na3VO4; 1×10^−3 M N^6,2′-O-dibutyryladenosine 3′,5′-cyclic monophosphate (dbcAMP), Sigma) (Halaban et al., 2000; Yokoyama et al., 2008). The culture medium was changed once every 2 days until confluency was reached. For the new method, the isolated melanocytes were seeded with TIVA medium plus 10 μM Y-27632 (Y0503, Sigma) for two days, then the culture medium was replaced with standard TIVA without Y-27632 every 2 days, as in the conventional method. […] For isolation of keratinocytes, the dissociated epidermal cells were seeded with keratinocyte culture medium (K-SFM, Gibco/Thermo Fisher Scientific, Waltham, Mass., USA) into culture dishes pretreated with coating matrix containing type-I collagen (Gibco, R-011-K) and the medium was changed every 2 days. In order to understand the role of Y-27632 in promoting melanocyte growth, different media were used in different experiments depending on the experimental needs; information about the medium and protocol used for each experiment is listed in the following table.
To test whether Y-27632 can enhance the yield of primary melanocytes, dissociated cells isolated from epidermis were plated with melanocyte culture medium (TWA) containing 10 μM Y-27632 and incubated for 48 h, and then the medium was replaced with TIVA without Y-27632. […] The differences were significant at 5 or more days after plating, and at 16 days, about 5 times more melanocytes were recovered from Y-27632-treated cultures compared with untreated cultures. We further tested whether longer treatment with Y-27632 had the same effect.

The test system of test [1] is passage 3 melanocytes. The experiment in a line: Melanocyte proliferation in co-culture with keratinocytes in TIVA medium (cell counting). The note with it: 24 h and 48 h. The method, then: (§1) FIGS. 1A-C. Keratinocytes that survive culture in TWA medium with Y-27632 can enhance melanocyte growth through a paracrine signaling pathway. A. Equal numbers of pure passage 3 melanocytes were plated with TWA medium in 4 groups with addition(s) as indicated: 1) Y-27632 (10 μM) alone (Y in graph), 2) passage 3 keratinocytes alone (K), 3) keratinocytes and Y-27632 (10 μM) (K+Y), and 4) no addition (negative control, con). Relative fold changes in melanocyte proliferation compared to the negative control were determined by counting the number of melanocytes at 24 h and 48 h after plating. B. Conditioned TWA media were obtained from the 4 groups of passage 3 melanocyte cultures in (A) at 48 h after plating. Then, equal numbers of passage 3 melanocytes were plated in 4 groups, each with one of the conditioned medium. Relative fold changes in melanocyte proliferation compared to the negative control were determined by counting the number of melanocytes at 24 h and 48 h after plating. C. […]
(§2) Therefore, we hypothesized that the surviving keratinocytes in TIVA medium with Y-27632 can promote proliferation of melanocytes by secreting growth factors into the medium. […] To identify potential growth factors, quantitative RT-PCR analysis was performed for expression of six factors that have been reported to be secreted by cultured human keratinocytes and could enhance melanocyte growth.

Test [2] concerns passage 3 melanocytes. Description: Melanocyte proliferation in conditioned TIVA media (cell counting). The method, then:
as §1, §2

The next test deals with SCF (KITLG). The experiment in a line: qRT-PCR analysis of SCF mRNA expression in keratinocytes. The method, then: as §1, with “B. Conditioned TWA media were obtained from the 4 groups of passage 3 melanocyte cultures in (A) at 48 h after plating. Then, equal numbers of passage 3 melanocytes were plated in 4 groups, each with one of the conditioned medium.” left out, “plating.” for “plating. C.”
FIGS. 2A-E. Y-27632 can increase SCF expression in keratinocytes, which can promote melanocyte growth. […] Relative fold changes in melanocyte proliferation compared to the control medium were determined by counting the numbers of melanocytes. *p<0.05, **p<0.01 compared with the control; #p<0.05 comparing the SCF-treated group with the IgG-treated group.
Total RNA was extracted from cells using a QIAGEN RNeasy Plus Mini Kit (QIAGEN, Hilden, Germany) according to manufacturer's instructions. […] Data were acquired and analyzed with 7500 Fast System SDS software (Life Tedmologies, Grand Island, N.Y., USA). […]
(Quantitative PCR measures a nucleic acid by following its amplification.)

The test system of a further test is SCF. The experiment in a line: Western blot analysis of SCF protein expression in keratinocytes. The settings on record: K-SFM with or without Y-27632 for 24, 48 or 72 h. As to the method:
FIGS. 2A-E. Y-27632 can increase SCF expression in keratinocytes, which can promote melanocyte growth. A. RT-PCR analysis of SCF mRNA expression in passage 3 keratinocytes grown in K-SFM with (Y) or without (con) Y-27632 for the indicated times. **p<0.01 comparing Y-treated with the corresponding control group. B. Western blot analysis of SCF protein expression with or without Y-27632 for 24, 48 or 72 h. C. RT-PCR analysis of SCF mRNA expression in keratinocytes grown in K-SFM with increasing concentrations of Y-27632 for 48 h. **p<0.01, ***p<0.005 comparing Y-27632-treated with untreated cells (0). D. gRT-PCR analysis of SCF mRNA expression in keratinocytes grown in K-SFM, 72 h after transfection of ROCK1 and ROCK2 siRNAs individually and together. **p<0.01 when compared with the control cells transfected with scramble siRNA (siCtrl). […] Relative fold changes in melanocyte proliferation compared to the control medium were determined by counting the numbers of melanocytes. *p<0.05, **p<0.01 compared with the control; #p<0.05 comparing the SCF-treated group with the IgG-treated group.
To test whether Y-27632 can enhance expression of SCF in keratinocytes, we cultured keratinocytes in the keratinocyte culture condition (K-SFM) with or without Y-27632 and measured SCF expression.
On the technique in general: In western blotting, separated proteins are transferred to a membrane and probed.

In test [3] the test system is passage 3 melanocytes. Description: Melanocyte proliferation in conditioned K-SFM media from keratinocytes ± Y-27632, ± SCF antibody. The settings on record: K-SFM conditioned 48 h by keratinocytes with Y-27632; melanocytes cultured 48 h. As to the method:
FIGS. 2A-E. Y-27632 can increase SCF expression in keratinocytes, which can promote melanocyte growth. A. RT-PCR analysis of SCF mRNA expression in passage 3 keratinocytes grown in K-SFM with (Y) or without (con) Y-27632 for the indicated times. **p<0.01 comparing Y-treated with the corresponding control group. B. Western blot analysis of SCF protein expression with or without Y-27632 for 24, 48 or 72 h. C. RT-PCR analysis of SCF mRNA expression in keratinocytes grown in K-SFM with increasing concentrations of Y-27632 for 48 h. **p<0.01, ***p<0.005 comparing Y-27632-treated with untreated cells (0). D. gRT-PCR analysis of SCF mRNA expression in keratinocytes grown in K-SFM, 72 h after transfection of ROCK1 and ROCK2 siRNAs individually and together. **p<0.01 when compared with the control cells transfected with scramble siRNA (siCtrl). E. Passage 3 keratinocytes were cultured in K-SFM with or without 1′-27632 for 48 h, and then the conditioned media were collected. […] Relative fold changes in melanocyte proliferation compared to the control medium were determined by counting the numbers of melanocytes. *p<0.05, **p<0.01 compared with the control; #p<0.05 comparing the SCF-treated group with the IgG-treated group. […]

A further test relates to melanocytes. Description: Transwell migration assay of melanocytes. The method, then: A. Representative images of migrated melanocytes (dark grey) in the transwell migration assay with different conditions as indicated. […] C. The transwell migration assay was performed under the indicated conditions. ROCKi: Rock inhibitor Y-27632 (10 μM), SIKi: SIK inhibitors with different concentrations as indicated.
To test the effect of Y-27632 on melanocyte cell migration, 1×10^5 cells were cultured in the upper chamber of a transwell migration apparatus. The lower chamber was supplemented either with 254 (melanocyte culture medium) without FBS (control) or 254 media plus seeding human keratinocytes (HKC) in the bottom or 254 medium with […] Y-27632 plus seeding keratinocytes in the bottom (Y-27632+HKC) or 254 medium in the presence of 1% FBS. The chambers were incubated for 24 hours at 37° C. After removal of non-migrated cells on top of the filter, cells that had migrated through the membrane were fixed in 4% paraformaldehyde washed and then stained with 0.1% crystal violet (FIG. 3A). The number of cells that had migrated through the membrane was counted in six randomly selected high-power microscopic fields and the average number of cells were shown in FIG. 3B. […]

Experimental findings from patent US20220202827A1, “Enhancement of Melanocyte Migration Using ROCK Inhibitors” (The General Hospital Corporation, priority 2019, published 2022) are described below.

Each structure is given as a SMILES string.

As for `C[C@@H](N)[C@H]1CC[C@H](C(=O)Nc2ccncc2)CC1.Cl.Cl` [Y-27632, (+)-(R)-trans-4-(1-aminoethyl)-N-(4-pyridyl)cyclohexanecarboxamide dihydrochloride], the “melanocytes recovered compared with untreated cultures” value in the test on primary melanocytes (10 μM Y-27632 for first 48 h, at 16 days) was “about 5 times”. In addition, the “duration of treatment generating the highest yield of melanocytes” value in the test with primary melanocytes (continuous treatment with Y-27632, incubation until Day 12) worked out at 4 days. For the same compound, the “yield of melanocytes relative to the untreated group” value in the test with primary melanocytes (continuous treatment with Y-27632 for up to 12 days) is “increased the yield of melanocytes relative to the untreated group”. In addition, the “melanocytes observed in treated versus untreated cultures” value in the test on primary melanocytes (dissociated epidermal cells, TIVA with 10 μM Y-27632 for 48 h, then TIVA alone, differences significant at 5 or more days after plating) is listed as “more melanocytes in cultures treated with Y-27632 than in cultures without Y-27632”. Further, the growth of melanocytes entry in the test on passage 3 melanocytes [1] (Y-27632 (10 μM) alone, no keratinocytes) is “neither Y-27632 alone nor keratinocytes medium alone could promote the growth of melanocytes”. Further, the melanocyte proliferation entry in the test on passage 3 melanocytes [1] (keratinocytes and Y-27632 (10 μM) (K+Y)) is reported as “could significantly increase melanocyte proliferation”; with passage 3 melanocytes [2] (conditioned medium from cultures of keratinocytes in TIVA+Y-27632), “significantly enhanced melanocyte proliferation”; with passage 3 melanocytes [2] (conditioned medium from cultures of melanocytes with TIVA and Y-27632 alone) it was “did not increase melanocyte proliferation”. Moreover, the “SCF mRNA level in keratinocytes” value in the test with SCF (KITLG) (passage 3 keratinocytes in K-SFM with or without Y-27632) is “can increase both mRNA and protein levels of SCF”. Besides, in the test with SCF (KITLG) (passage 3 keratinocytes in TIVA+Y-27632, 0-48 h), the “expression of six melanocyte growth-enhancing factors (RT-PCR)” value is listed as “only SCF (KITLG) expression increased significantly”. In addition, in the test on SCF, the “SCF protein level in keratinocytes” value is “can increase both mRNA and protein levels of SCF”. Besides, the “melanocyte growth with conditioned medium” value with passage 3 melanocytes [3] was “enhancement of melanocyte growth”. Also, in the test with melanocytes (ROCKi (10 uM Y-27632), SIKi at different concentrations, alone or combined (FIG. 3C)), the melanocyte migration result is “could enhances melanocyte migration”. For the same compound, the “migration of melanocytes through the membrane” value in the test with melanocytes (lower chamber: 254 medium with 10 μM Y-27632 plus keratinocytes (HKC), 24 hours) is “significantly induced the migration of melanocytes”.
